Results taken from patent publication US11395821B2, “Treatment of EGFR-driven cancer with fewer side effects” (G1 Therapeutics, Inc., priority 2017, dated 2022).

Columns and labels:
[1] = system: H1975 (EGFR^L858R/T790M NSCLC Model); assay: Example 3: Compound IV added to afatinib after resistance in H1975 tumor bearing mice; assay type: in vivo
Protocol: EGFRL858R/T790M NSCLC model (H1975) tumor bearing mice were treated with daily oral doses of vehicle or afatinib (20 mg/kg). Once tumors became resistant to afatinib (˜D18), Compound IV (100 mg/kg) was added to the treatment regimen. Tumors were measured […]. Data is plotted to compare tumor growth in each cohort during the treatment. The x-axis is days of treatment measured in time and the y-axis is tumor volume measured in mm^3.
Compound IV in combination with the EGFR-TKI afatinib was tested in an EGFR^L858R/T790M NSCLC model to determine the ability of the combination to reverse afatinib resistance. H1975 (EGFR^L858R/T790M NSCLC Model) tumor bearing mice were treated daily with 20 mg/kg of afatinib. Once tumors became resistant to afatinib (about D18), Compound IV (100 mg/kg) was added to the treatment regimen. Tumors were measured twice a week for 40 days. Data is plotted to compare tumor growth in each cohort during treatment.

[2] = Study G1T38-01: safety and tolerability in healthy subjects; assay type: in vivo, Humans
Text: Effects on hematologic parameters were not observed due to the limited duration of dosing.

[3] = G1T38-02: G1T38-related TEAEs by CTCAE grade; assay type: in vivo, Humans; details: for G1T38-related TEAE: Alopecia / G1T38-related TEAE: Anaemia / G1T38-related TEAE: Blood bilirubin increased / G1T38-related TEAE: Blood creatinine increased / G1T38-related TEAE: Blood lactate dehydrogenase increased / G1T38-related TEAE: Blood urea increased / G1T38-related TEAE: Diarrhoea / G1T38-related TEAE: Dry eye / G1T38-related TEAE: Dry mouth / G1T38-related TEAE: Haematuria / G1T38-related TEAE: Lacrimation increased / G1T38-related TEAE: Leukopenia / G1T38-related TEAE: Monocyte count decreased / G1T38-related TEAE: Nausea / G1T38-related TEAE: Neutropenia / G1T38-related TEAE: Neutrophil count deceased / G1T38-related TEAE: Platelet count decreased / G1T38-related TEAE: Stomatitis / G1T38-related TEAE: Thombocytopenia / G1T38-related TEAE: Vomiting / G1T38-related TEAE: White blood cell count decreased / Number (%) of patients with any G1T38-related TEAEs: N = 18

CC(C)N1CCN(c2ccc(Nc3ncc4cc5n(c4n3)C3(CCCCC3)CNC5=O)nc2)CC1 [Compound IV]
acquired resistance to afatinib (tumor volume) ([1]; afatinib 20 mg/kg daily, Compound IV 100 mg/kg added at about D18, 40 days): reverses acquired resistance to afatinib | decrease of tumor volume, combination vs Compound IV alone and afatinib alone ([1]; as worded in Example 3): more effective at decreasing tumor volume | afatinib efficacy and time to resistance (tumor volume) ([1]; as worded in Example 3: Compound IV 50 or 100 mg/kg in combination with afatinib): increased the afatinib efficacy and extended the time to resistance | effect of fed conditions on gastrointestinal tolerability ([2]; dosing under fed conditions): appeared to improve gastrointestinal tolerability | effects on hematologic parameters ([2]; limited duration of dosing): not observed | tolerability ([2]; single or twice daily oral doses, 3 to 600 mg/day, healthy male and female subjects): well to moderately tolerated | most common moderate intensity TEAEs ([2]; subjects with moderate tolerability): gastrointestinal AEs were the most common moderate intensity treatment-emergent AEs | G1T38-related TEAE: Alopecia ([3]; Grade 1-2): 1 (5.6) n (%) | G1T38-related TEAE: Anaemia ([3]; Grade 1-2): 6 (33.3) n (%) | G1T38-related TEAE: Blood bilirubin increased ([3]; Grade 1-2): 1 (5.6) n (%) | G1T38-related TEAE: Blood creatinine increased ([3]; Grade 1-2): 2 (11.1) n (%) | G1T38-related TEAE: Blood lactate dehydrogenase increased ([3]; Grade 1-2): 1 (5.6) n (%) | G1T38-related TEAE: Blood urea increased ([3]; Grade 1-2): 1 (5.6) n (%) | G1T38-related TEAE: Diarrhoea ([3]; Grade 1-2): 5 (27.8) n (%) | G1T38-related TEAE: Dry eye ([3]; Grade 1-2): 1 (5.6) n (%) | G1T38-related TEAE: Dry mouth ([3]; Grade 1-2): 1 (5.6) n (%) | G1T38-related TEAE: Haematuria ([3]; Grade 1-2): 3 (16.7) n (%) | G1T38-related TEAE: Lacrimation increased ([3]; Grade 1-2): 1 (5.6) n (%) | G1T38-related TEAE: Leukopenia ([3]; Grade 1-2): 1 (5.6) n (%) | G1T38-related TEAE: Monocyte count decreased ([3]; Grade 1-2): 1 (5.6) n (%) | G1T38-related TEAE: Nausea ([3]; Grade 1-2): 5 (27.8) n (%) | G1T38-related TEAE: Neutropenia ([3]; Grade 1-2): 3 (16.7) n (%) | G1T38-related TEAE: Neutrophil count deceased ([3]; Grade 1-2): 7 (38.9) n (%) | G1T38-related TEAE: Platelet count decreased ([3]; Grade 1-2): 2 (11.1) n (%) | G1T38-related TEAE: Stomatitis ([3]; Grade 1-2): 1 (5.6) n (%) | G1T38-related TEAE: Thombocytopenia ([3]; Grade 1-2): 1 (5.6) n (%) | G1T38-related TEAE: Vomiting ([3]; Grade 1-2): 3 (16.7) n (%) | G1T38-related TEAE: White blood cell count decreased ([3]; Grade 1-2): 7 (38.9) n (%) | Number (%) of patients with any G1T38-related TEAEs ([3]; Grade 1-2): 11 (61.1) n (%) | G1T38-related TEAE: Alopecia ([3]; Grade 3): 0 n (%) | G1T38-related TEAE: Anaemia ([3]; Grade 3): 0 n (%) | G1T38-related TEAE: Blood bilirubin increased ([3]; Grade 3): 0 n (%) | G1T38-related TEAE: Blood creatinine increased ([3]; Grade 3): 0 n (%) | G1T38-related TEAE: Blood lactate dehydrogenase increased ([3]; Grade 3): 0 n (%) | G1T38-related TEAE: Blood urea increased ([3]; Grade 3): 0 n (%) | G1T38-related TEAE: Diarrhoea ([3]; Grade 3): 0 n (%) | G1T38-related TEAE: Dry eye ([3]; Grade 3): 0 n (%) | G1T38-related TEAE: Dry mouth ([3]; Grade 3): 0 n (%) | G1T38-related TEAE: Haematuria ([3]; Grade 3): 0 n (%) | G1T38-related TEAE: Lacrimation increased ([3]; Grade 3): 0 n (%) | G1T38-related TEAE: Leukopenia ([3]; Grade 3): 0 n (%) | G1T38-related TEAE: Monocyte count decreased ([3]; Grade 3): 0 n (%) | G1T38-related TEAE: Nausea ([3]; Grade 3): 0 n (%) | G1T38-related TEAE: Neutropenia ([3]; Grade 3): 1 (5.6) n (%) | G1T38-related TEAE: Neutrophil count deceased ([3]; Grade 3): 2 (11.1) n (%) | G1T38-related TEAE: Platelet count decreased ([3]; Grade 3): 0 n (%) | G1T38-related TEAE: Stomatitis ([3]; Grade 3): 0 n (%) | G1T38-related TEAE: Thombocytopenia ([3]; Grade 3): 0 n (%) | G1T38-related TEAE: Vomiting ([3]; Grade 3): 0 n (%) | G1T38-related TEAE: White blood cell count decreased ([3]; Grade 3): 0 n (%) | Number (%) of patients with any G1T38-related TEAEs ([3]; Grade 3): 3 (16.7) n (%) | G1T38-related TEAE: Alopecia ([3]; Grade 4): 0 n (%) | G1T38-related TEAE: Anaemia ([3]; Grade 4): 0 n (%) | G1T38-related TEAE: Blood bilirubin increased ([3]; Grade 4): 0 n (%) | G1T38-related TEAE: Blood creatinine increased ([3]; Grade 4): 0 n (%) | G1T38-related TEAE: Blood lactate dehydrogenase increased ([3]; Grade 4): 0 n (%) | G1T38-related TEAE: Blood urea increased ([3]; Grade 4): 0 n (%) | G1T38-related TEAE: Diarrhoea ([3]; Grade 4): 0 n (%) | G1T38-related TEAE: Dry eye ([3]; Grade 4): 0 n (%) | G1T38-related TEAE: Dry mouth ([3]; Grade 4): 0 n (%) | G1T38-related TEAE: Haematuria ([3]; Grade 4): 0 n (%) | G1T38-related TEAE: Lacrimation increased ([3]; Grade 4): 0 n (%) | G1T38-related TEAE: Leukopenia ([3]; Grade 4): 0 n (%) | G1T38-related TEAE: Monocyte count decreased ([3]; Grade 4): 0 n (%) | G1T38-related TEAE: Nausea ([3]; Grade 4): 0 n (%) | G1T38-related TEAE: Neutropenia ([3]; Grade 4): 1 (5.0) n (%) | G1T38-related TEAE: Neutrophil count deceased ([3]; Grade 4): 0 n (%) | G1T38-related TEAE: Platelet count decreased ([3]; Grade 4): 0 n (%) | G1T38-related TEAE: Stomatitis ([3]; Grade 4): 0 n (%) | G1T38-related TEAE: Thombocytopenia ([3]; Grade 4): 0 n (%) | G1T38-related TEAE: Vomiting ([3]; Grade 4): 0 n (%) | G1T38-related TEAE: White blood cell count decreased ([3]; Grade 4): 0 n (%) | Number (%) of patients with any G1T38-related TEAEs ([3]; Grade 4): 1 (5.6) n (%) | G1T38-related TEAE: Alopecia ([3]; Grade 5): 0 n (%) | G1T38-related TEAE: Anaemia ([3]; Grade 5): 0 n (%) | G1T38-related TEAE: Blood bilirubin increased ([3]; Grade 5): 0 n (%) | G1T38-related TEAE: Blood creatinine increased ([3]; Grade 5): 0 n (%) | G1T38-related TEAE: Blood lactate dehydrogenase increased ([3]; Grade 5): 0 n (%) | G1T38-related TEAE: Blood urea increased ([3]; Grade 5): 0 n (%) | G1T38-related TEAE: Diarrhoea ([3]; Grade 5): 0 n (%) | G1T38-related TEAE: Dry eye ([3]; Grade 5): 0 n (%) | G1T38-related TEAE: Dry mouth ([3]; Grade 5): 0 n (%) | G1T38-related TEAE: Haematuria ([3]; Grade 5): 0 n (%) | G1T38-related TEAE: Lacrimation increased ([3]; Grade 5): 0 n (%) | G1T38-related TEAE: Leukopenia ([3]; Grade 5): 0 n (%) | G1T38-related TEAE: Monocyte count decreased ([3]; Grade 5): 0 n (%) | G1T38-related TEAE: Nausea ([3]; Grade 5): 0 n (%) | G1T38-related TEAE: Neutropenia ([3]; Grade 5): 0 n (%) | G1T38-related TEAE: Neutrophil count deceased ([3]; Grade 5): 0 n (%) | G1T38-related TEAE: Platelet count decreased ([3]; Grade 5): 0 n (%) | G1T38-related TEAE: Stomatitis ([3]; Grade 5): 0 n (%) | G1T38-related TEAE: Thombocytopenia ([3]; Grade 5): 0 n (%) | G1T38-related TEAE: Vomiting ([3]; Grade 5): 0 n (%) | G1T38-related TEAE: White blood cell count decreased ([3]; Grade 5): 0 n (%) | Number (%) of patients with any G1T38-related TEAEs ([3]; Grade 5): 0 n (%) | G1T38-related TEAE: Alopecia ([3]; Overall): 1 (5.6) n (%) | G1T38-related TEAE: Anaemia ([3]; Overall): 6 (33.3) n (%) | G1T38-related TEAE: Blood bilirubin increased ([3]; Overall): 1 (5.6) n (%) | G1T38-related TEAE: Blood creatinine increased ([3]; Overall): 2 (11.1) n (%) | G1T38-related TEAE: Blood lactate dehydrogenase increased ([3]; Overall): 1 (5.6) n (%) | G1T38-related TEAE: Blood urea increased ([3]; Overall): 1 (5.6) n (%) | G1T38-related TEAE: Diarrhoea ([3]; Overall): 5 (27.8) n (%) | G1T38-related TEAE: Dry eye ([3]; Overall): 1 (5.6) n (%) | G1T38-related TEAE: Dry mouth ([3]; Overall): 1 (5.6) n (%) | G1T38-related TEAE: Haematuria ([3]; Overall): 3 (16.7) n (%) | G1T38-related TEAE: Lacrimation increased ([3]; Overall): 1 (5.6) n (%) | G1T38-related TEAE: Leukopenia ([3]; Overall): 1 (5.6) n (%) | G1T38-related TEAE: Monocyte count decreased ([3]; Overall): 1 (5.6) n (%) | G1T38-related TEAE: Nausea ([3]; Overall): 5 (27.8) n (%) | G1T38-related TEAE: Neutropenia ([3]; Overall): 5 (27.8) n (%) | G1T38-related TEAE: Neutrophil count deceased ([3]; Overall): 9 (50.0) n (%) | G1T38-related TEAE: Platelet count decreased ([3]; Overall): 2 (11.1) n (%) | G1T38-related TEAE: Stomatitis ([3]; Overall): 1 (5.6) n (%) | G1T38-related TEAE: Thombocytopenia ([3]; Overall): 1 (5.6) n (%) | G1T38-related TEAE: Vomiting ([3]; Overall): 3 (16.7) n (%) | G1T38-related TEAE: White blood cell count decreased ([3]; Overall): 7 (38.9) n (%) | Number (%) of patients with any G1T38-related TEAEs ([3]; Overall): 15 (83.3) n (%) | more severe EGFR-TKI-related AEs ([3]; nonclinical and clinical data to date (see Example 6)): none of the more severe EGFR-TKI-related AEs have been observed
